This note sets out measurements from patent US10260108B2, “PARP genomic variants conferring resistance and sensitization to chemotherapy under inhibition” (University of Pittsburgh—Of the Commonwealth System of …, priority 2014, dated 2019).

The test system of one assay is NCI-60 cell lines. The experiment in a line: NCI-60 […] IC50 values, cell lines with rs1805407 vs wild type. Type of assay: cell-based. To be noted: NCI60 IC50 values, C/T or C/C (n=23) vs T/T (n=37). The source says: Given that TMZ damages the DNA and PARP1 has a critical role in DNA repair, one plausible hypothesis is that rs1805407 is either associated with increased PARP1 activity or decreased PARP1 trapping after treatment with alkylating agents (Murai J, et al. (2012) Cancer Res 72(21):5588-5599). The role of rs1805407 in cell response to various drugs was investigated. The NCI-60 […]™ database (Reinhold W C, et al. (2012) Cancer Res 72(14):3499-3511) contains the response of 60 cell lines to ˜50,000 compounds. It was evaluated whether drugs affect differentially the cell lines that have at least one copy of rs1805407 (C/T or C/C) vs wild type (T/T).
SNP imputation on TCGA samples and NCI-60 cell lines: NCI-60 data were obtained from Cell Miner in June 2013 (discover.nci_nih.gov/cellminer/). For those cell lines or TCGA samples for which the identity of SNP rs1805407 was not available we used imputation to infer its identity. Using SNAP (17) we found 51 SNPs to be in perfect linkage disequilibrium (LD) with rs1805407 (R^2=1). Of these, 9 variants were covered by the Affymetrix SNP Array 6.0 used by the TCGA. To determine the rs1805407 genotype in TCGA samples birdseed calls (Korn J M, et al. (2008) Nature genetics 40(10):1253-126) from Affymetrix Genome-Wide Human SNP Array 6.0 were used. Only samples with a birdseed confidence less than 0.1 or where all 9 SNPs in perfect LD agreed with the birdseed call were used.

The subject of a further assay is MDA-MB-231. The experiment in a line: MTT cell proliferation assay, MMS alone or with ABT-888. Type of assay: cell-based. To be noted: Homo sapiens, MDA-MB-231 breast, PARP1/SNP C/T, MMS alone, 72 h, mean (±SD). The source says:
(§1) PARP1 cell proliferation and drug interaction assays: RPMI 1640 and Dulbecco's modified Eagle medium (DMEM) with L-Glutamine, cell culture media were purchased from Cellgro (Mediatech, Inc.). Heat-inactivated Foundation Fetal bovine serum (FBS) was purchased from Gemini bio-products. The alkylating agent, methyl methanesulfonate (MMS) was purchased from Sigma. The PARPi veliparib (ABT-888, Abbott Laboratories, Abbott Park, Ill., USA) was used in the cell proliferation assays. The ABT-888 used in the drug interaction assays was purchased from Selleck Chemicals LLC (Huston, Tex., USA). MMS is an alkylating agent that results in DNA damage at the same bases as dacarbazine and temozolomide and has been used extensively as an alternative in the laboratory setting. ABT-888 was dissolved in dimethyl sulfoxide (DMSO) to a stock solution of 10 mM. A 10 μM working solution was then prepared in PBS for subsequent serial dilutions.
(§2) The cytotoxic effect of the PARP inhibitor veliparib (ABT-888) and the alkylating agent, MMS was assessed using the MTT colorimetric dye reduction assay, according to the manufacturer's instructions (TACS® MTT Cell Proliferation Assay (MTT-CPA) from Trevigen, Inc.). MTT assay was used for each cell line to determine the half-maximal (50%) inhibitory concentration (IC50) values of MMS alone or in combination with ABT-888. Briefly, cells were seeded in triplicates in 96 wells at appropriate cell density (optimized for each individual cell line to have exponentially growing cells during the course of the assay), in their regular culture medium (DMEM with L-Glutamine from Cellgro (Mediatech, Inc.)). After 24 h, the medium was aspirated and the cells were incubated with increasing concentrations of MMS alone (0 to 1 mM) or in the presence of a fixed concentration (10 nM final) of ABT-888 (six replicates for each combination treatment) for 72 h at 37° C. Then, 10 μl of MTT Reagent was added to each well and the plates were incubated for another 4 h at 37° C. in the dark. In each well, 100 μl of Detergent Reagent was then added and incubated at 37° C. until complete solubilization of formazan crystals.
(§3) In single drug treatment experiments (MMS alone), drug-free controls containing 0.5% DMSO were included. In drug combination experiments with increasing concentrations of MMS, the samples with PARPi alone (fixed concentration of 10 nM of ABT-888), were used as controls. All control values were normalized to 100%. Cell viability was measured by reading the absorbance at 570 nm using a Tecan (Safire 2) microplate reader. Reading was converted to the percentage of the controls. The values obtained for each of the triplicates were averaged, and IC50 values were defined as the concentrations of drug(s) that inhibited growth by 50% relative to controls. The data from the MTT assay were expressed as mean IC50±standard deviation (SD). The IC50 of ABT-888, MMS and linear regression analysis were computed by […] Prism 5.0 program ([…] Software, Inc., San Diego, Calif.). For each cell line, the P-value was calculated using the Student t-test (two-tailed, paired) to compare the IC50 means of each treatment group (MMS alone or MMS+ABT-888).
(In general: Tetrazolium dyes change colour on reduction, which living cells bring about.)

For a further assay, the system named is MCF-7. The description is as above. Type of assay: cell-based. To be noted: Homo sapiens, MCF7, MCF-7 breast, PARP1/SNP C/T, MMS alone, 72 h, mean (±SD).
Source text: as §1, §2, §3

Another assay concerns A2780. The assay is described as above. Type of assay: cell-based. To be noted: Homo sapiens, A2780 ovarian, PARP1/SNP C/T, MMS alone, 72 h, mean (±SD).
Source text: as §1, §2, §3

A further assay deals with SW620. The assay is described as above. Format: cell-based. To be noted: Homo sapiens, SW-620, SW620 colon, PARP1/SNP T/T, MMS alone, 72 h, mean (±SD).
Source text: as §1, §2, §3

In another assay the test system is M14. The description is as above. Format: cell-based. To be noted: Homo sapiens, M14 melanoma, PARP1/SNP C/T, MMS alone, 72 h, mean (±SD).
Source text: as §1, §2, §3

In the next assay the test system is A375. The description is as above. Format: cell-based. To be noted: Homo sapiens, A-375, A375 melanoma, PARP1/SNP T/T, MMS alone, 72 h, mean (±SD).
Source text: as §1, §2, §3

The test system of a further assay is A549. Described as above. Format: cell-based. To be noted: Homo sapiens, A549 lung, PARP1/SNP C/T, MMS alone, 72 h, mean (±SD).
Source text: as §1, §2, §3

Another assay deals with FEMX. The description is as above. Type of assay: cell-based. To be noted: Homo sapiens, Fem-X, FEMX melanoma, PARP1/SNP T/T, MMS alone, 72 h, mean (±SD).
Source text: as §1, §2, §3

The test system of a further assay is H-522. The description is as above. Type of assay: cell-based. To be noted: Homo sapiens, NCI-H522, H-522 lung, PARP1/SNP T/T, MMS alone, 72 h, mean (±SD).
Source text: as §1, §2, §3

Assay [1] deals with metastatic melanoma patients. The assay is described as follows: Response to TMZ treatment in metastatic melanoma patients by rs1805407 genotype. Format: in vivo, human. To be noted: all 21 patients that had the SNP rs1805407 (C/T or C/C). The source says:
The melanoma dataset consisted of whole genome gene expression, microRNA expression, DNA methylation, and data from the selected SNP panel. MGM-Learn was used to learn a network over the top 1000 features most correlated (pairwise) with “response” to treatment clinical variable, a binary variable indicating response/no response to temozolomide (TMZ) treatment dichotomized at presence of a response or stability of disease at 4 months of therapy. The 1,000 most correlated features in the input dataset included 557 mRNA expression probes, 425 methylation probes, 14 miRNA probes and 4 SNPs. […] The largest interconnected output network included 20 features connected to the response variable in our initial (undirected) learned network (FIG. 2A). It was emphasized that these features were connected to the response variable not only because they have high pairwise correlation with it (FIG. 2B), but also because they are dependent on response even when conditioned on all other variables included in the input. In this sense, they represent direct (causal) interactions and not simple biomarkers. From the 20 features initially connected to response, 15 were left connected after causal filtering (FIG. 2A, black lines). […]
Melanoma study design: Using a retrospective cohort study design, 69 patients with metastatic melanoma who were treated with alkylator-based chemotherapy were evaluated. […]

For the compound `O=NN(CCCl)C(=O)NCCCl` [Carmustine], the “resistance or sensitivity of cell lines with at least one allele of rs1805407 vs wild type” value (shortened to “resistance or sensitivity … vs wild type”) with NCI-60 cell lines is recorded as “Increased resistance”.
`O=P1(N(CCCl)CCCl)NCCCO1` (centres unmarked) [Cyclophosphamide]: the “resistance or sensitivity … vs wild type” value in the assay on NCI-60 cell lines is recorded as “Increased resistance”.
Same read-out and setting: with `CC1=C(CO)C2=C(C)C3(CC3)[C@@](C)(O)C(=O)C2=C1` [Irofulven, Hydroxymethylacylfulvene] the entry was “Increased sensitivity”.
Regarding `COS(C)(=O)=O` [MMS, methyl methanesulfonate], the IC50 in the assay on MDA-MB-231 turned out to be 260 µM; in the assay on MCF-7, 193 µM; in the assay on A2780, 190 µM; in the assay with SW620, 299 µM; with M14 it was 521 µM; in the assay on A375, 306 µM. Moreover, the figures for the concentration for half-maximal inhibition (IC50) with A549, with FEMX and in the assay with H-522 were 255 µM, 166 µM and 578 µM, respectively.
As to `Cn1nnc2c(C(N)=O)ncn2c1=O` [TMZ, temozolomide], the “response to TMZ treatment” value in assay [1] is on record as “no response”.
For the compound `O=C(c1cc(Cc2n[nH]c(=O)c3ccccc23)ccc1F)N1CCN(C(=O)C2CC2)CC1` [olaparib], the “resistance or sensitivity … vs wild type” value in the assay on NCI-60 cell lines is given as “slight increase in sensitivity”.

By IC50 is commonly meant the concentration that gives 50% inhibition.
